# Test results: paper PMC9061857, “A fluorogenic probe for granzyme B enables in-biopsy evaluation and screening of response to anticancer immunotherapies” (Nature Communications, 2022)
# Where no end group is shown, it is not given here.
# What was measured:
# [1] = system: co-cultures of E0771 cells and IL-2-activated CD8+ T cells; experiment: Image-based phenotypic drug screen (H5 fluorescence); conditions: for fluorescence signals compared to IL-2 only controls: combination with IL-2
# Protocol: E0771 and CD8+ T cells were co-cultured for 2 days and then incubated with IL-2 (100 U mL^−1) and each individual drug at their respective working concentrations for 3 h (Table S5).
# Wells received 100 U mL^−1 IL-2 (low IL-2) for T cell viability. […] Data as means ± SEM (n = 8). […] Data as means ± SD (n = 5). P-value from two-tailed t-tests.
# E0771 (750 cells/well) and freshly isolated murine CD8+ T cells (6000 cells/well) were plated in 384-well plates as described above. After 2 days of co-culture at 37 °C, cells were further incubated with IL-2 alone (100 or 250 U mL^−1) or IL-2 (100 U mL^−1) in combination with drugs (Table S5) for 3 h. […] Briefly, nuclei were used as seeds to create a pseudo-cell area and GzmB-positive puncta were detected using a top-hat filter (pixel size: 10, circle shape) followed by an average filter (3 × 3 pixels).
# [2] = system: E0771 cells; experiment: Flow cytometry of E0771 cells in co-culture with CD8+ T cells; type: cell-based, mouse; conditions: E0771 alone, staurosporine 1 μM, 1 h
# Protocol: Treatments with staurosporine (1 μM) were for 1 h. […]
# mouse CD8+ T cells and mKate-E0771 cells. b) Representative flow cytometry contour plots of E0771 cells in: left) co-cultures of E0771 cells (50,000 cells well-1) and activated […]
# cells well-1), right) E0771 alone cells treated with staurosporine (1 µM, 1 h). c) Representative flow cytometry contour plots of CD8+ T cells in: left) co-cultures of E0771 […]
# 2 h) murine CD8+ T cells (200,000 cells well -1). All cultures in b) and c) were equally […]
# with and without preincubation of the GzmB inhibitor Ac -IEPD-CHO. Data presented as […]
# 633/670 nm (for AF647-Annexin V). Representative plots from independent experiments performed in triplicate. Source data in d provided as a Source Data file.
# [3] = system: E0771 cells alone or in co-culture with CD8+ T cells; experiment: Hit validation of AZD5363 by flow cytometry; type: cell-based, mouse
# Protocol: (from 3 independent experiments) in E0771 cells alone (50,000 cells well-1) or in co-culture with CD8+ T cells (200,000 cells well-1) and treatment of AZD5363 (1 μM). concentration: 1,000 U mL-1. Excitation/emission wavelengths: 488 nm/525 nm. b) Representative flow cytometry contour plots (from 3 independent experiments; gating […]
# (1 picture or pasted object on this page, not shown here) […]
# strategy shown in Supplementary Figure 7) of E0771 cells (50,000 cells well-1) after co- […]
# 633/670 nm (for AF647-Annexin V). c) Percentages of E0771 cells that were double - […]
# in a). Data presented as mean values±SEM (n=3). […]
# obtained from ONE-ANOVA tests with multiple c omparisons. Source data in c provided
# [4] = biological target: T1, human GzmB (hGzmB) (Homo sapiens, UniProt P10144); experiment: Fluorescence assay with recombinant hGzmB (fluorogenic response, time course); type: biochemical; conditions: Ac-IEPD-CHO 50 μM preincubated 1 h with GzmB
# T1 construct: For active GzmB vs pro-GzmB, p < 0.0001
# Protocol: Fluorescence-based assays with different enzymes were performed in the appropriate buffers. Probes (25 μM) were added to enzymes (20 nM or at the indicated concentrations) in 384-well plates and their fluorescence emission was recorded at 450 nm (for AMC) or 510 nm (for BODIPY) at 37 °C using a Synergy H1 Hybrid spectrophotometer. In experiments with Ac-IEPD-CHO (50 μM), the inhibitor was preincubated for 1 h with GzmB before the addition of any probe.
# [5] = biological target: T1, human GzmB (hGzmB); experiment: HPLC conversion of fluorogenic peptides by hGzmB; type: biochemical; conditions: probe 25 μM (Ac-IEPD-AMC 50 μM), TRIS buffer, 37 °C, HPLC-UV
# Protocol: Supplementary Figure 1. Reactivity of fluorogenic substrates against human GzmB and limits of detection. a) Reaction conversion rates (by HPLC-UV detection at 350 nm) for Ac-IEPD-AMC (50 μM) in TRIS buffer (see Methods) at 37 °C containing different concentrations of hGzmB. Data presented as mean values±SEM (n=3 independent biological experiments). b) Reaction conversion rates (by HPLC-UV detection at 500 nm) for the tetrapeptide T1 (25 μM) in TRIS buffer at 37 °C containing different concentrations of hGzmB. Data presented as mean values±SEM (3 independent biological experiments).
# Source data provided as a Source Data file.
# (1 picture or pasted object on this page, not shown here)
# Supplementary Table 1. Chemical structures and reactivity of FRET-based tetrapeptides against human GzmB.
# Code Structure Linker Quencher HPLC conversion HPLC conversion […]
# Supplementary Table 2. Sequences and reactivity of FRET-based hexapeptides against […]
# Code Peptide sequence HPLC conversion
# H1 Ile-Glu-Pro-Asp-Ala-Gly 75%
# H2 Ile-Glu-Pro-Asp-Ser-Gly 80%
# H3 Ile-Glu-Pro-Asp-Ser-Leu 80%
# H4 Ile-Glu-Pro-Asp-Trp-Leu 82%
# H6 Ile-Glu-Pro-Asp-Trp-Arg 40%
# H7 Ile-Glu-Pro-Asp-Arg-Leu 60%
# H5m Ile-Glu-Phe-Asp-Ala-Leu 70%
# [6] = system: recombinant mouse GzmB; experiment: Reactivity against recombinant mouse GzmB (fluorescence); type: biochemical; conditions: probe 25 μM, 90 min, 37 °C, mouse pro-GzmB 100 nM pre-activated with cathepsin C
# Protocol: and H5m (both at 25 μM) after incubation for 90 min at 37 °C with recombinant mouse
# pro-GzmB (100 nM) after pre-activation with mouse cathepsin C (5.5 μg mL-1) for 4 h.
# Excitation/emission wavelengths: 450 nm /510 nm. Data presented as mean values±SEM
# (3 independent experiments with 3 technical replicates). Source data provided as a […]
# T1 sequence (P10144 21-247): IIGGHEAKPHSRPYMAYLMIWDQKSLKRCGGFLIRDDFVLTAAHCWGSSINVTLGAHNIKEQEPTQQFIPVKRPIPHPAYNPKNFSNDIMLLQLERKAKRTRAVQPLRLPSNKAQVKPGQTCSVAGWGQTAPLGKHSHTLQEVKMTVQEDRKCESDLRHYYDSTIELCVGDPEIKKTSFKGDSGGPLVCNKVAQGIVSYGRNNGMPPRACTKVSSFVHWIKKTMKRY
molecule,measurement,setting,value
"CC(=O)O[C@@]12CO[C@@H]1C[C@H](O)[C@@]1(C)C(=O)[C@H](O)C3=C(C)[C@@H](OC(=O)[C@H](O)[C@@H](NC(=O)OC(C)(C)C)c4ccccc4)C[C@@](O)([C@@H](OC(=O)c4ccccc4)[C@H]21)C3(C)C [C11, Docetaxel]",fluorescence signals compared to IL-2 only controls,[1],Increased
"C#CC[C@H](c1nc2cc(Cl)ccc2c(=O)n1Nc1ccccc1)N(CCCN)C(=O)c1cccc(Cl)c1F [C12, ARQ621]",fluorescence signals compared to IL-2 only controls,[1],Increased
"C/C(=C\c1csc(C)n1)[C@@H]1C[C@@H]2O[C@]2(C)CCC[C@H](C)[C@H](O)[C@@H](C)C(=O)C(C)(C)[C@@H](O)CC(=O)O1 [C13, Epothilone B]",fluorescence signals compared to IL-2 only controls,[1],Increased
"CO[C@@]12[C@H](COC(N)=O)C3=C(C(=O)C(C)=C(N)C3=O)N1C[C@@H]1N[C@@H]12 [C18, Mitomycin C]",fluorescence signals compared to IL-2 only controls,[1],Increased
"Cn1nnc2c(C(N)=O)ncn2c1=O [C20, Temozolomide]",fluorescence signals compared to IL-2 only controls,[1],Increased
"CC(=O)N[C@@H](CSC(=O)[C@]1([C@@H](O)C(C)C)NC(=O)[C@H](C)[C@@H]1O)C(=O)O [C30, Lactacystin]",fluorescence signals compared to IL-2 only controls,[1],Increased
"CN[C@@H]1C[C@H]2O[C@@](C)([C@@H]1OC)n1c3ccccc3c3c4c(c5c6ccccc6n2c5c31)C(=O)NC4 [staurosporine, reference compound]",Annexin V +ve E0771 cells,[2]; replicate 1,84%
same,viable E0771 cells,[2]; replicate 1,13%
same,Annexin V +ve E0771 cells,[2]; replicate 2,62%
same,viable E0771 cells,[2]; replicate 2,37%
same,Annexin V +ve E0771 cells,[2]; replicate 3,71%
same,viable E0771 cells,[2]; replicate 3,27%
AZD5363 [C5],E0771 cells double-stained with probe H5 and AF647-Annexin V,"[3]; AZ only (AZD5363 1 μM), Data1",2%
same,E0771 cells double-stained with probe H5 and AF647-Annexin V,"[3]; AZ only (AZD5363 1 μM), Data2",2%
same,E0771 cells double-stained with probe H5 and AF647-Annexin V,"[3]; AZ only (AZD5363 1 μM), Data3",3%
same,"cancer cell death and H5 labeling, drug on its own","[3]; AZD5363 1 μM alone, E0771 cells",did not induce significant cancer cell death
same,"cancer cell death and H5 emission, drug with IL-2","[3]; AZD5363 1 μM with 100 U mL^−1 IL-2, CD8+ T cell-E0771 co-cultures",caused significant cancer cell death
same,E0771 cells double-stained with probe H5 and AF647-Annexin V,"[3]; IL-2+AZ (AZD5363 1 μM), co-culture with CD8+ T cells, Data1",33%
same,E0771 cells double-stained with probe H5 and AF647-Annexin V,"[3]; IL-2+AZ (AZD5363 1 μM), co-culture with CD8+ T cells, Data2",42%
same,E0771 cells double-stained with probe H5 and AF647-Annexin V,"[3]; IL-2+AZ (AZD5363 1 μM), co-culture with CD8+ T cells, Data3",44%
same,fluorescence signals compared to IL-2 only controls,[1],Increased
same,H5 fluorescence staining in the screen,"[1]; drug 1 μM + IL-2 100 U mL^−1, 3 h",brightest H5 fluorescence staining
Ac-IEPD-aldehyde [reference compound],effect on the fluorescence response of H5 to hGzmB,[4],markedly reduced
"IEFDAL [H5m, hexapeptide analogue containing phenylalanine, IEFDAL]","HPLC conversion (20 nM hGzmB, 2 h)",[5],70%
same,Fluorescence fold increase,[6]; Data 1,5.6
same,Fluorescence fold increase,[6]; Data 2,7.1
same,Fluorescence fold increase,[6]; Data 3,5.2
same,Fluorescence fold increase,[6]; Data 4,8.2
same,Fluorescence fold increase,[6]; Data 5,10.5
same,Fluorescence fold increase,[6]; Data 6,7.7
same,Fluorescence fold increase,[6]; Data 7,9.6
same,Fluorescence fold increase,[6]; Data 8,8.2
same,Fluorescence fold increase,[6]; Data 9,12.2
